Results as given in ChEMBL document CHEMBL6096722, “A Hypoxia-Activated BODIPY-Azo Anticancer Prodrug for Bimodal Chemo-Photodynamic Therapy” (J Med Chem, 2025).
Activity calls are given as the source filed them. The rule behind the calls is not given here.

How the values were obtained:
[1] = test system: A-375; assay: Induction of apoptosis in human A-375 cells assessed as late apoptotic cells at 2 uM incubated for 24 hrs under hypoxia condition by Annexin V-FITC staining based flow cytometry analysis; assay type: functional
[2] = test system: A-375; assay: Induction of apoptosis in human A-375 cells assessed as necrotic cells at 2 uM incubated for 24 hrs under normoxia condition by Annexin V-FITC staining based flow cytometry analysis; assay type: functional
[3] = Cytotoxicity against human HUVEC cells assessed as cell viability at upto 100 uM incubated for 4 hrs by CCK-8 assay; assay type: toxicity, cell-based; details: read-out: Activity
[4] = test system: A-375; assay: Induction of apoptosis in human A-375 cells assessed as late apoptotic cells at 6 uM incubated for 24 hrs under normoxia condition by Annexin V-FITC staining based flow cytometry analysis; assay type: functional
[5] = test system: A-375; assay: Cytotoxicity against human A-375 cells assessed as cell viability at 0.25 to 16 uM incubated for 4 hrs by CCK-8 assay; assay type: functional; details: dose 0.25-16 µM
[6] = Photostability of compound in PBS buffer at pH 7.4 at 10 uM under 20 W/cm2 white LED light irradiation measured for 60 mins by absorption based assay; assay type: physicochemical; details: pH 7.4, 1 h
[7] = test system: A-375; assay: Induction of apoptosis in human A-375 cells assessed as early apoptotic cells at 6 uM incubated for 24 hrs under normoxia condition by Annexin V-FITC staining based flow cytometry analysis; assay type: functional
[8] = test system: A-375; assay: Cytotoxicity against human A-375 cells assessed as cell viability at upto 100 uM incubated for 4 hrs under hypoxic condition by CCK-8 assay; assay type: functional, cell-based
[9] = test system: A-375; assay: Induction of apoptosis in human A-375 cells assessed as viable cells at 6 uM incubated for 24 hrs under hypoxia condition by Annexin V-FITC staining based flow cytometry analysis; assay type: functional; details: read-out: Activity
[10] = test system: A-375; assay: Antitumor activity against human A-375 cells assessed as cell viability incubated for 4 hrs under hypoxia condition by MTT assay; assay type: functional, cell-based; details: A-375, 4 h
[11] = test system: A-375; assay: Induction of apoptosis in human A-375 cells assessed as late apoptotic cells at 4 uM incubated for 24 hrs under hypoxia condition by Annexin V-FITC staining based flow cytometry analysis; assay type: functional
[12] = test system: A-375; assay: Antitumor activity against human A-375 cells xenografted in male BALB/c mouse assessed as tumor growth inhibition at 2.9 mg/ml, ip measured for 60 mins with light irradiation; assay type: functional; details: A-375, light or radiation study, 1 h, read-out: TGI
[13] = test system: A-375; assay: Induction of ROS generation in human A-375 cells assessed as increase fluorescence intensity at 10 uM incubated with compound for 24 hrs by DCFH-DA staining based analysis; assay type: functional, cell-based
[14] = test system: A-375; assay: Induction of apoptosis in human A-375 cells assessed as necrotic cells at 4 uM incubated for 24 hrs under hypoxia condition by Annexin V-FITC staining based flow cytometry analysis; assay type: functional
[15] = test system: A-375; assay: Induction of apoptosis in human A-375 cells assessed as viable cells at 2 uM incubated for 24 hrs under hypoxia condition by Annexin V-FITC staining based flow cytometry analysis; assay type: functional; details: read-out: Activity
[16] = test system: A-375; assay: Cytotoxicity against human A-375 cells assessed as cell viability at upto 100 uM preincubated with compound for 4 hrs followed by light irradiation for 30 mins and measured after 24 hrs under hypoxic condition by CCK-8 assay; assay type: functional, cell-based; details: time 28.5 hrs
[17] = Retention time of the compound by HPLC-MASS analysis; assay type: physicochemical
[18] = test system: A-375; assay: Induction of apoptosis in human A-375 cells assessed as viable cells at 6 uM incubated for 24 hrs under normoxia condition by Annexin V-FITC staining based flow cytometry analysis; assay type: functional; details: read-out: Activity
[19] = test system: A-375; assay: Induction of ROS generation in human A-375 cells assessed as increase in green fluorescence at 10 uM preincubated with compound for 24 hrs followed by light irradiation for 30 mins and measured after 30 mins by DCFH-DA staining based fluorescence microscopic analysis; assay type: functional, cell-based; details: time 25.0 hrs
[20] = test system: A-375; assay: Antitumor activity against human A-375 cells assessed as cell viability preincubated with compound for 4 hrs followed by light irradiation for 30 mins and measured after 24 hrs under normoxic condition by MTT assay; assay type: functional, cell-based; details: A-375, light or radiation study
[21] = test system: A-375; assay: Induction of apoptosis in human A-375 cells assessed as early apoptotic cells at 6 uM incubated for 24 hrs under hypoxia condition by Annexin V-FITC staining based flow cytometry analysis; assay type: functional
[22] = test system: A-375; assay: Induction of apoptosis in human A-375 cells assessed as necrotic cells at 4 uM incubated for 24 hrs under normoxia condition by Annexin V-FITC staining based flow cytometry analysis; assay type: functional
[23] = test system: A-375; assay: Induction of apoptosis in human A-375 cells assessed as late apoptotic cells at 6 uM incubated for 24 hrs under hypoxia condition by Annexin V-FITC staining based flow cytometry analysis; assay type: functional
[24] = test system: A-375; assay: Induction of apoptosis in human A-375 cells assessed as necrotic cells at 6 uM incubated for 24 hrs under hypoxia condition by Annexin V-FITC staining based flow cytometry analysis; assay type: functional
[25] = test system: A-375; assay: Induction of apoptosis in human A-375 cells assessed as early apoptotic cells at 4 uM incubated for 24 hrs under hypoxia condition by Annexin V-FITC staining based flow cytometry analysis; assay type: functional
[26] = test system: A-375; assay: Cytotoxicity against human A-375 cells assessed as cell viability at 100 uM incubated for 4 hrs by CCK-8 assay; assay type: functional; details: read-out: Activity
[27] = test system: A-375; assay: Induction of apoptosis in human A-375 cells assessed as necrotic cells at 2 uM incubated for 24 hrs under hypoxia condition by Annexin V-FITC staining based flow cytometry analysis; assay type: functional
[28] = Photostability of compound in PBS buffer at pH 7.4 at 10 uM under 20 W/cm2 white LED light irradiation measured upto 10 mins by absorption based assay; assay type: physicochemical; details: pH 7.4, 10 min
[29] = Selectivity index, ratio of IC50 for antitumor activity against human A-375 cells assessed as cell viability incubated for 4 hrs under hypoxic condition by MTT assay to IC50 for antitumor activity against human A-375 cells assessed as cell viability incubated for 4 hrs under normoxic condition by MTT assay; assay type: functional
[30] = test system: A-375; assay: Induction of apoptosis in human A-375 cells assessed as viable cells at 2 uM incubated for 24 hrs under normoxia condition by Annexin V-FITC staining based flow cytometry analysis; assay type: functional; details: read-out: Activity
[31] = test system: A-375; assay: Antitumor activity against human A-375 cells assessed as cell viability incubated for 4 hrs under normoxic condition by MTT assay; assay type: functional, cell-based; details: A-375, 4 h
[32] = test system: A-375; assay: Cytotoxicity against human A-375 cells assessed as cell viability at 100 uM preincubated with compound for 4 hrs followed by light irradiation for 30 mins and measured after 24 hrs by CCK-8 assay; assay type: functional, cell-based; details: time 28.5 hrs
[33] = test system: A-375; assay: Induction of apoptosis in human A-375 cells assessed as viable cells at 4 uM incubated for 24 hrs under normoxia condition by Annexin V-FITC staining based flow cytometry analysis; assay type: functional; details: read-out: Activity
[34] = Induction of singlet oxygen quantum yield under irradiation with 590 nm LED light by DPBF based assay; assay type: functional
[35] = test system: A-375; assay: Induction of apoptosis in human A-375 cells assessed as early apoptotic cells at 2 uM incubated for 24 hrs under hypoxia condition by Annexin V-FITC staining based flow cytometry analysis; assay type: functional
[36] = test system: A-375; assay: Induction of apoptosis in human A-375 cells assessed as necrotic cells at 6 uM incubated for 24 hrs under normoxia condition by Annexin V-FITC staining based flow cytometry analysis; assay type: functional
[37] = test system: A-375; assay: Induction of apoptosis in human A-375 cells assessed as late apoptotic cells at 4 uM incubated for 24 hrs under normoxia condition by Annexin V-FITC staining based flow cytometry analysis; assay type: functional
[38] = test system: A-375; assay: Induction of apoptosis in human A-375 cells assessed as viable cells at 4 uM incubated for 24 hrs under hypoxia condition by Annexin V-FITC staining based flow cytometry analysis; assay type: functional; details: read-out: Activity
[39] = test system: A-375; assay: Antitumor activity against human A-375 cells assessed as cell viability preincubated with compound for 4 hrs followed by light irradiation for 30 mins and measured after 24 hrs under hypoxic condition by MTT assay; assay type: functional, cell-based; details: A-375, light or radiation study
[40] = test system: A-375; assay: Induction of apoptosis in human A-375 cells assessed as early apoptotic cells at 4 uM incubated for 24 hrs under normoxia condition by Annexin V-FITC staining based flow cytometry analysis; assay type: functional
[41] = test system: A-375; assay: Induction of apoptosis in human A-375 cells assessed as late apoptotic cells at 2 uM incubated for 24 hrs under normoxia condition by Annexin V-FITC staining based flow cytometry analysis; assay type: functional
[42] = test system: A-375; assay: Induction of apoptosis in human A-375 cells assessed as early apoptotic cells at 2 uM incubated for 24 hrs under normoxia condition by Annexin V-FITC staining based flow cytometry analysis; assay type: functional
[43] = test system: A-375; assay: Anticancer activity against human A-375 cells measured at 12 to 30 hrs under hypoxic condition; assay type: functional, cell-based; details: time 12-30 hrs
[44] = Toxicity in BALB/c mouse assessed at 2.9 mg/ml, ip assessed as morphological changes in tumor measured for 60 mins with light irradiation by H and E staining based analysis; assay type: organism-based; details: in vivo, 1 h
[45] = Toxicity in BALB/c mouse assessed change in body weight at 2.9 mg/ml, ip measured for 60 mins with light irradiation; assay type: organism-based; details: in vivo, 1 h
[46] = test system: A-375; assay: Cytotoxicity against human A-375 cells assessed as cell viability at >1 uM preincubated with compound for 4 hrs followed by light irradiation for 30 mins and measured after 24 hrs by CCK-8 assay; assay type: functional, cell-based; details: time 28.5 hrs
[47] = test system: A-375; assay: Anticancer activity against human A-375 cells measured at 24 hrs under hypoxic condition; assay type: functional, cell-based

CC1=C(Br)C(C)=[N+]2C1=C(c1ccccc1)c1c(C)c(Br)c(/C=C/c3ccc(OCc4ccc(/N=N/c5ccc(N(CCCl)CCCl)cc5)cc4)cc3)n1[B-]2(F)F
Activity [1]: 1.663%
Activity [2]: 0.058%
viability at 4 h, 100 µM [3]: > 90%
Activity [4]: 15.404%
Activity [5]: >80%
Stability [6]: Stable
Activity [7]: 12.663%
Activity [8]: Active
viability at 6 µM [9]: 93.6%
IC50 [10]: > 16 µM
Activity [11]: 3.098%
inhibition in vivo at 2900 µg/mL [12]: 92%
Activity [13]: Active
Activity [14]: 0.975%
viability at 2 µM [15]: 96.3%
Activity [16]: Active
Retention_time [17]: 1.422 min
viability at 6 µM [18]: 71.7%
Activity [19]: Active
IC50 [20]: 1.35 µM
Activity [21]: 1.832%
Activity [22]: 0.185%
Activity [23]: 3.285%
Activity [24]: 1.274%
Activity [25]: 0.147%
viability at 100 µM [26]: ~50%
Activity [27]: 13.664%
Stability [28]: Stable
Ratio IC50 [29]: 11.02
viability at 2 µM [30]: 92.7%
IC50 [31]: > 100 µM
Activity [32]: Active
viability at 4 µM [33]: 85.5%
Activity [34]: Active
Activity [35]: 0.809%
Activity [36]: 0.247%
Activity [37]: 6.769%
viability at 4 µM [38]: 94.8%
IC50 [39]: 4.18 µM
Activity [40]: 7.534%
Activity [41]: 2.806%
Activity [42]: 4.467%

CC1=C(Br)C(C)=[N+]2C1=C(c1ccccc1)c1c(C)c(Br)c(/C=C/c3ccc(O)cc3)n1[B-]2(F)F
viability at 4 h, 100 µM [3]: > 90%
Activity [5]: >80%
Stability [6]: Stable
Activity [8]: Active
Activity [43]: Active
IC50 [10]: > 16 µM
inhibition in vivo at 2900 µg/mL [12]: 71%
Activity [13]: Active
Activity [44]: Non-toxic
Activity [45]: Non-toxic
Activity [16]: Active
Retention_time [17]: 3.5 min
Activity [19]: Active
IC50 [20]: 6.99 µM
Activity [46]: Active
viability at 100 µM [26]: ~50%
Activity [47]: Active
Stability [28]: Stable
Ratio IC50 [29]: 309.63
IC50 [31]: > 100 µM
Activity [32]: Active
Activity [34]: Active
IC50 [39]: 0.77 µM
